Experiments:
[1] = test system: Mtb-R-TBA161-C (aspS F526L); assay type: cell-based, Mycobacterium tuberculosis
[2] = test system: Mtb carrying pMS2-aspSMmar or pMS2-aspSMmarR168G; assay type: cell-based, Mycobacterium tuberculosis

Compound: O=c1c2cc(Cl)cc(Cl)c2oc2nc3n(c(=O)c12)CCCS3 [TBA161-C, 9,11-dichloro-3,4-dihydro-chromeno[2′,3′:4,5]pyrimido[2,1-b][1,3]thiazine-6,7-dione]
- MIC90, TBA161-C-resistant Mtb strains [1]: exceeding 20 µM
- MIC90 of resistant Mtb strains compared to the parental strain [1]: more than tenfold higher
- Increase of MIC90, Mtb overexpressing wild-type aspS vs wild-type strain [2]: fivefold
- MIC90, Mtb overexpressing mutated aspS (aspSMmarR168G) [2]: > 80 µM

Reference: publication PMC8713996, “An anti-tuberculosis compound screen using a zebrafish infection model identifies an aspartyl-tRNA synthetase inhibitor” (Disease Models & Mechanisms, 2021)
